According to patent US20140343001A1, “INDOLE DERIVATIVES INHIBITORS OF ENZYME LACTATE DEHYDROGENASE (LDH)” (Universitá di Pisa, priority 2011, published 2014):

Key:
[1] = target: T1, hLDH5 (LDH-A) (Homo sapiens, UniProt P00338); experiment: Enzyme inhibition of human lactate dehydrogenase isoform 5; format: biochemical; conditions: ranges of values, pH 7.4; for Ki: 37° C., read-out: inhibitory activity against hLDH5 (Ki); for IC50: room temperature, read-out: inhibitory activity against hLDH5 (IC50)
T1 construct: purchased LEEBIO (USA)
Description: The compounds described in the examples were evaluated in enzymatic assays to assess its inhibitory properties against two human isoforms of lactate dehydrogenase, hLDH5 containing solely the subunit LDH-A (LEEBIO—USA), and the hLDH1 containing only the LDH subunits-B (Sigma Aldrich, USA), in order to verify the selectivity of these compounds.
(for Ki measurements). Such assays were conducted in cells containing 200 μL of a solution comprising the reagents dissolved in phosphate buffer (KH2PO4 and K2HPO4) at pH 7.4.
IC50 values were calculated as described below. […] Seven different concentrations (in duplicate for each concentration) of compound were used to generate a concentration-response curve. […] Compound solutions were dispensed in 96-well plates (8 μL), then substrate and cofactor dissolved in buffer (152 μl) and enzyme solution (40 μl) were finally added. Dilution of the enzyme stock solution was made to allow a 10% consumption of the cofactor after 15 min. The eventual background fluorescence of the tested compounds or quenching of the NADH fluorescence by the tested compounds was subtracted. In addition to the compound test wells, each plate contained maximum and minimum controls. Assay plates were incubated at room temperature for 15 min and the final measurements were performed using Victor X3 Microplates reader (PerkinElmer®) at a fluorescence emission wavelength of 460 nm (excitation at 340 nm). IC50 were generated using the curve-fitting tool of GraphPad Prism].
The resulting data of enzymatic kinetic (the constants of Michaelis-Menten) were determined by analysis of non-linear regression.

[2] = system: HeLa cells; experiment: Determination of cellular production of lactate (GC/MS); format: cell-based; conditions: 8 hours, concentrations from 50 to 200 μM, comparable or superior to 2-DeoxGlu at 10 mM
[3] = system: H1975; experiment: Inhibition of tumor cell growth method (b), CellTiter-Glo; format: cell-based; conditions: Homo sapiens, NCI-H1975, H1975, 72 h
Excerpt: (§1) CellTiter-Glo® Luminescent Cell Viability Assay (Promega) is a homogeneous method of determining the number of viable cells in culture based on quantitation of the present ATP, which indicates the presence of metabolically active cells. The homogeneous assay procedure involves addition of a single reagent (CellTiter-Glo® Reagent) directly to the cells, which leads to cell lysis and generation of a luminescent signal proportional to the amount of the ATP and the number of cells present in culture. The assay relies on the properties of a proprietary thermostable luciferase (Ultra-Glo® recombinant luciferase), which generates a luminescent signal.
(§2) After 72 h, a volume of CellTiter-Glo® Reagent equal to the volume of cell culture medium was added. The content was mixed for 2 min to induce cell lysis. The luminescence was recorded after further 10 min at RT in order to obtain a stable luminescent signal.
(§3) The IC50 was calculated using GraphPad Software.

[4] = system: A549 cells; experiment: as above; format: cell-based; conditions: Homo sapiens, A549, 72 h
Excerpt: as §1, §2, §3

Row | Structure (SMILES) | Ki [1] | IC50 [3] | IC50 [4] | IC50 [1] | reduction of cellular production of lactate [2]
1 | CCOC(=O)c1cc2c(C(F)(F)F)cc(-c3ccc(Cl)cc3Cl)cc2n1O [Example 9, ethyl 6-(2,4-dichloropheyl)-1-hydroxy-4-(trifluoromethyl)-1H-indole-2-carboxylate] | 1 to 10 µM | ≤ 31 µM | ≤ 31 µM |  | reduce effectively cellular production of lactate
2 | COC(=O)c1cc2c(C(F)(F)F)cc(-c3cccc(OC(F)(F)F)c3)cc2n1O [Example 19, methyl 1-hydroxy-4-(trifluoromethyl)-6-(3-(trifluoromethoxy)phenyl)-1H-indole-2-carboxylate] | 1 to 10 µM | ≤ 31 µM | ≤ 31 µM |  | 
3 | CCCCOC(=O)c1cc2c(C(F)(F)F)cc(-c3ccccc3)cc2n1O [Example 22, butyl 1-hydroxy-6-phenyl-4-(trifluoromethyl)-1H-indole-2-carboxylate] | 0.5 to 5 µM | ≤ 31 µM | ≤ 31 µM |  | reduce effectively cellular production of lactate
4 | CC(C)OC(=O)c1cc2c(C(F)(F)F)cc(-c3ccccc3)cc2n1O [Example 23, isopropyl 1-hydroxy-6-phenyl-4-(trifluoromethyl)-1H-indole-2-carboxylate] | 1 to 10 µM | ≤ 31 µM | ≤ 31 µM |  | reduce effectively cellular production of lactate
5 | O=C(O)c1cc2c(C(F)(F)F)cc(-c3cccc(OC(F)(F)F)c3)cc2n1O [Example 25, 1-hydroxy-4-(trifluoromethyl)-6-(3-(trifluoromethoxy)phenyl)-1H-indole-2-carboxylic acid] | 1 to 10 µM |  | ≤ 31 µM |  | 
6 | CC(C)OC(=O)c1cc2c(C(F)(F)F)cc(-c3ccccc3)cc2n1O[C@@H]1O[C@H](CO)[C@@H](O)[C@H](O)[C@H]1O [Example 31, isopropyl 1-(β-D-glucopyranosyl)oxy-6-phenyl-4-(trifluoromethyl)-1H-indole-2-carboxylate] |  |  |  | 50 to 500 µM | reduce effectively cellular production of lactate
7 | CC(C)OC(=O)c1cc2c(C(F)(F)F)cc(-c3ccc(Cl)cc3Cl)cc2n1O [Example 32, isopropyl 6-(2,4-dichlorophenyl)-1-hydroxy-4-(trifluoromethyl)-1H-indole-2-carboxylate] | 0.5 to 5 µM | ≤ 31 µM | ≤ 31 µM |  | reduce effectively cellular production of lactate
8 | CCCCOC(=O)c1cc2c(C(F)(F)F)cc(-c3ccc(Cl)cc3Cl)cc2n1O [Example 33, butyl 6-(2,4-dichlorophenyl)-1-hydroxy-4-(trifluoromethyl)-1H-indole-2-carboxylate] |  |  |  | 0.01 to 1 µM | reduce effectively cellular production of lactate
9 | COC(=O)c1cc2c(C(F)(F)F)cc(-c3ccccc3OC(F)(F)F)cc2n1O [Example 34, methyl 1-hydroxy-6-(2-(trifluoromethoxy)phenyl)-4-(trifluoromethyl)-1H-indole-2-carboxylate] | 5 to 25 µM | ≤ 31 µM | ≤ 31 µM |  | 
10 | O=C(O)c1cc2c(C(F)(F)F)cc(-c3ccccc3OC(F)(F)F)cc2n1O [Example 35, 1-hydroxy-6-(2-(trifluoromethoxy)phenyl)-4-(trifluoromethyl)-1H-indole-2-carboxylic acid] | 5 to 25 µM | ≤ 31 µM | ≤ 31 µM |  | 
11 | COC(=O)c1cc2c(C(F)(F)F)cc(-c3cccc(Cl)c3Cl)cc2n1O [Example 36, methyl 6-(2,3-dichlorophenyl)-1-hydroxy-4-(trifluoromethyl)-1H-indole-2-carboxylate] | 1 to 10 µM | ≤ 31 µM | ≤ 31 µM |  | 
12 | COC(=O)c1cc2c(C(F)(F)F)cc(-c3cc(Cl)ccc3Cl)cc2n1O [Example 38, methyl 6-(2,5-dichlorophenyl)-1-hydroxy-4-(trifluoromethyl)-1H-indole-2-carboxylate] | 5 to 25 µM | ≤ 31 µM | ≤ 31 µM |  | 
13 | COC(=O)c1cc2c(C(F)(F)F)cc(-c3ccccc3)cc2n1O[C@@H]1O[C@H](CO)[C@H](O)[C@@H](O)[C@H]1O [Example 40, methyl 1-(β-d-gulopyranosyl)oxy-6-phenyl-4-(trifluoromethyl)-1H-indole-2-carboxylate] |  |  |  |  | reduce effectively cellular production of lactate
14 | COC(=O)c1cc2c(C(F)(F)F)cc(-c3ccccc3)cc2n1O[C@H]1O[C@H](CO)[C@@H](O)[C@H](O)[C@@H]1O [Example 41, methyl 1-(α-d-mannopyranosyl)oxy-6-phenyl-4-(trifluoromethyl)-1H-indole-2-carboxylate] |  |  |  |  | reduce effectively cellular production of lactate
15 | COC(=O)c1cc2c(C(F)(F)F)cc(-c3cc(Cl)cc(Cl)c3)cc2n1O [Example 42, methyl 6-(3,5-dichlorophenyl)-1-hydroxy-4-(trifluoromethyl)-1H-indole-2-carboxylate] | 1 to 10 µM | ≤ 31 µM | ≤ 31 µM |  | 

Second part, led by results:

Row | Ki [1] | IC50 [3] | IC50 [4] | IC50 [1] | Structure (SMILES) | reduction of cellular production of lactate [2]
16 | 1 to 10 µM |  | ≤ 31 µM |  | O=C(O)c1cc2c(C(F)(F)F)cc(-c3cc(Cl)cc(Cl)c3)cc2n1O [Example 43, 6-(3,5-dichlorophenyl)-1-hydroxy-4-(trifluoromethyl)-1H-indole-2-carboxylic acid] | 
17 | 0.5 to 5 µM | ≤ 31 µM | ≤ 31 µM |  | O=C(OCc1ccccc1)c1cc2c(C(F)(F)F)cc(-c3ccccc3)cc2n1O [Example 48, benzyl 1-hydroxy-6-phenyl-4-(trifluoromethyl)-1H-indole-2-carboxylate] | 
18 | 5 to 25 µM | ≤ 31 µM | ≤ 31 µM |  | COC(=O)c1cc2c(F)cc(-c3ccc(Cl)cc3Cl)cc2n1O [Example 53, methyl 6-(2,4-dichlorophenyl)-4-fluoro-1-hydroxy-1H-indole-2-carboxylate] | 
19 |  |  |  | > 100 µM | O=C(OC1CCN(Cc2ccccc2)CC1)c1cc2c(C(F)(F)F)cc(-c3ccc(Cl)cc3Cl)cc2n1O [Example 59, 1-benzylpiperidin-4-yl 6-(2,4-dichlorophenyl)-1-hydroxy-4-(trifluoromethyl)-1H-indole-2-carboxylate] | 
20 |  |  |  | 0.01 to 1 µM | COc1ccc(COC(=O)c2cc3c(C(F)(F)F)cc(-c4ccc(Cl)cc4Cl)cc3n2O)cc1 [Example 60, 4-methoxybenzyl 6-(2,4-dichlorophenyl)-1-hydroxy-4-(trifluoromethyl)-1H-indole-2-carboxylate] | 
21 |  |  |  | 0.01 to 1 µM | O=C(OCc1ccc([N+](=O)[O-])cc1)c1cc2c(C(F)(F)F)cc(-c3ccc(Cl)cc3Cl)cc2n1O [Example 61, 4-nitrobenzyl 6-(2,4-dichlorophenyl)-1-hydroxy-4-(trifluoromethyl)-1H-indole-2-carboxylate] | 
22 |  |  |  | 0.01 to 1 µM | O=C(OCc1ccc(F)cc1)c1cc2c(C(F)(F)F)cc(-c3ccc(Cl)cc3Cl)cc2n1O [Example 62, 4-fluorobenzyl 6-(2,4-dichlorophenyl)-1-hydroxy-4-(trifluoromethyl)-1H-indole-2-carboxylate] | 
23 |  |  |  | 0.01 to 1 µM | O=C(OCc1ccc(Cl)cc1)c1cc2c(C(F)(F)F)cc(-c3ccc(Cl)cc3Cl)cc2n1O [Example 63, 4-chlorobenzyl 6-(2,4-dichlorophenyl)-1-hydroxy-4-(trifluoromethyl)-1H-indole-2-carboxylate] | 
24 |  |  |  | 0.01 to 1 µM | O=C(OCc1ccc(C(F)(F)F)cc1)c1cc2c(C(F)(F)F)cc(-c3ccc(Cl)cc3Cl)cc2n1O [Example 64, 4-(trifluoromethyl)benzyl 6-(2,4-dichlorophenyl)-1-hydroxy-4-(trifluoromethyl)-1H-indole-2-carboxylate] | 
